Results as given in ChEMBL document CHEMBL3286384, “Synthesis, cytotoxicity, antimicrobial and anti-biofilm activities of novel pyrazolo[3,4-b]pyridine and pyrimidine functionalized 1,2,3-triazole derivatives” (Bioorg Med Chem Lett, 2014).
Converted amounts (≈) assume the structure as drawn. The source made the active and inactive calls. The calls are words filed in the database; no cut-off is given here.

Columns and labels:
[1] = tested on: A549; assay: Cytotoxicity against human A549 cells after 24 hrs by MTT assay; format: functional, cell-based; details: A549, 24 h
[2] = tested on: MCF7; assay: Cytotoxicity against human MCF7 cells after 24 hrs by MTT assay; format: functional, cell-based; details: MCF7, 24 h
[3] = tested on: HeLa; assay: Cytotoxicity against human HeLa cells after 24 hrs by MTT assay; format: functional, cell-based
[4] = tested on: DU-145; assay: Cytotoxicity against human DU145 cells after 24 hrs by MTT assay; format: functional, cell-based; details: DU-145, 24 h
[5] = tested on: Pseudomonas aeruginosa; assay: Antimicrobial activity against Pseudomonas aeruginosa MTCC 2453 assessed as inhibition of biofilm formation after 24 hrs by crystal violet staining-based assay; format: functional, organism-based; details: MTCC 2453, 24 h
[6] = tested on: Bacillus subtilis; assay: Bactericidal activity against Bacillus subtilis MTCC 121 after 24 hrs by agar plating method; format: functional; details: MTCC 121, 24 h
[7] = tested on: Candida albicans; details: MTCC 3017
Description: Antimicrobial activity against Candida albicans MTCC 3017 after 24 hrs by well diffusion method

[8] = tested on: Staphylococcus aureus; assay: Bactericidal activity against Staphylococcus aureus MTCC 96 after 24 hrs by agar plating method; format: functional; details: MTCC 96, 24 h
[9] = tested on: Staphylococcus aureus; assay: Antimicrobial activity against Staphylococcus aureus MLS-16 MTCC 2940 after 24 hrs by well diffusion method; format: functional; details: MLS-16 MTCC 2940, 24 h
[10] = tested on: Raoultella planticola; assay: Bactericidal activity against Klebsiella planticola MTCC 530 after 24 hrs by agar plating method; format: functional; details: MTCC 530, 24 h
[11] = tested on: Pseudomonas aeruginosa; assay: Antimicrobial activity against Pseudomonas aeruginosa MTCC 2453 after 24 hrs by well diffusion method; format: functional; details: MTCC 2453, 24 h
[12] = tested on: Raoultella planticola; assay: Antimicrobial activity against Klebsiella planticola MTCC 530 after 24 hrs by well diffusion method; format: functional; details: MTCC 530, 24 h
[13] = tested on: Raoultella planticola; assay: Antimicrobial activity against Klebsiella planticola MTCC 530 assessed as inhibition of biofilm formation after 24 hrs by crystal violet staining-based assay; format: functional, organism-based; details: MTCC 530, 24 h
[14] = tested on: Pseudomonas aeruginosa; assay: Bactericidal activity against Pseudomonas aeruginosa MTCC 2453 after 24 hrs by agar plating method; format: functional; details: MTCC 2453, 24 h
[15] = tested on: Micrococcus luteus; assay: Antimicrobial activity against Micrococcus luteus MTCC 2470 after 24 hrs by well diffusion method; format: functional; details: MTCC 2470, 24 h
[16] = tested on: Micrococcus luteus; assay: Antimicrobial activity against Micrococcus luteus MTCC 2470 assessed as inhibition of biofilm formation after 24 hrs by crystal violet staining-based assay; format: functional, organism-based; details: MTCC 2470, 24 h
[17] = tested on: Staphylococcus aureus; assay: Bactericidal activity against Staphylococcus aureus MLS-16 MTCC 2940 after 24 hrs by agar plating method; format: functional; details: MLS-16 MTCC 2940, 24 h
[18] = tested on: Micrococcus luteus; assay: Bactericidal activity against Micrococcus luteus MTCC 2470 after 24 hrs by agar plating method; format: functional; details: MTCC 2470, 24 h
[19] = tested on: Escherichia coli; assay: Antimicrobial activity against Escherichia coli MTCC 739 after 24 hrs by well diffusion method; format: functional; details: MTCC 739, 24 h
[20] = tested on: Staphylococcus aureus; assay: Antimicrobial activity against Staphylococcus aureus MTCC 96 after 24 hrs by well diffusion method; format: functional; details: MTCC 96, 24 h
[21] = tested on: Staphylococcus aureus; assay: Antimicrobial activity against Staphylococcus aureus MTCC 96 assessed as inhibition of biofilm formation after 24 hrs by crystal violet staining-based assay; format: functional, organism-based; details: MTCC 96, 24 h
[22] = tested on: Escherichia coli; assay: Bactericidal activity against Escherichia coli MTCC 739 after 24 hrs by agar plating method; format: functional; details: MTCC 739, 24 h
[23] = tested on: Staphylococcus aureus; assay: Antimicrobial activity against Staphylococcus aureus MLS-16 MTCC 2940 assessed as inhibition of biofilm formation after 24 hrs by crystal violet staining-based assay; format: functional, organism-based; details: MLS-16 MTCC 2940, 24 h
[24] = tested on: Bacillus subtilis; assay: Antimicrobial activity against Bacillus subtilis MTCC 121 after 24 hrs by well diffusion method; format: functional; details: MTCC 121, 24 h

## CCOC(=O)Cn1nc(-n2cc(Cn3c(N)nc(C(F)(F)F)cc3=O)nn2)c2ccc(C(F)(F)F)nc21
[1]
  IC50: 16.2 µM
[2]
  IC50: 12.2 µM
[3]
  IC50: 11.4 µM
[4]
  IC50: 18.3 µM

## Nc1nc(OCc2cn(-c3n[nH]c4nc(C(F)(F)F)ccc34)nn2)cc(C(F)(F)F)n1
[5]
  IC50: 3.9 µg/mL (≈ 8.76 µM)
[6]
  MBC: 31.2 µg/mL (≈ 70.1 µM)
[7]
  MIC: inactive
[8]
  MBC: 31.2 µg/mL (≈ 70.1 µM)
[9]
  MIC: 15.6 µg/mL (≈ 35 µM)
[10]
  MBC: 31.2 µg/mL (≈ 70.1 µM)
[1]
  IC50: 22.8 µM
[2]
  IC50: > 100 µM
[11]
  MIC: 7.8 µg/mL (≈ 17.5 µM)
[12]
  MIC: 15.6 µg/mL (≈ 35 µM)
[13]
  IC50: 7.8 µg/mL (≈ 17.5 µM)
[14]
  MBC: 15.6 µg/mL (≈ 35 µM)
[15]
  MIC: 7.8 µg/mL (≈ 17.5 µM)
[16]
  IC50: 7.8 µg/mL (≈ 17.5 µM)
[17]
  MBC: 31.2 µg/mL (≈ 70.1 µM)
[18]
  MBC: 15.6 µg/mL (≈ 35 µM)
[19]
  MIC: 7.8 µg/mL (≈ 17.5 µM)
[20]
  MIC: 15.6 µg/mL (≈ 35 µM)
[3]
  IC50: > 100 µM
[4]
  IC50: 28.9 µM
[21]
  IC50: 7.8 µg/mL (≈ 17.5 µM)
[22]
  MBC: 7.8 µg/mL (≈ 17.5 µM)
[23]
  IC50: 7.8 µg/mL (≈ 17.5 µM)
[24]
  MIC: 15.6 µg/mL (≈ 35 µM)

## CCOC(=O)Cn1nc(-n2cc(COc3cc(C(F)(F)F)nc(N)n3)nn2)c2ccc(C(F)(F)F)nc21
[5]
  IC50: 15.6 µg/mL (≈ 29.4 µM)
[6]
  MBC: 15.6 µg/mL (≈ 29.4 µM)
[7]
  MIC: inactive
[8]
  MBC: 15.6 µg/mL (≈ 29.4 µM)
[9]
  MIC: 7.8 µg/mL (≈ 14.7 µM)
[10]
  MBC: 15.6 µg/mL (≈ 29.4 µM)
[1]
  IC50: 16.3 µM
[2]
  IC50: 12.4 µM
[11]
  MIC: 15.6 µg/mL (≈ 29.4 µM)
[12]
  MIC: 7.8 µg/mL (≈ 14.7 µM)
[13]
  IC50: 3.9 µg/mL (≈ 7.34 µM)
[14]
  MBC: 15.6 µg/mL (≈ 29.4 µM)
[15]
  MIC: > 250 µg/mL
[16]
  IC50: 7.8 µg/mL (≈ 14.7 µM)
[17]
  MBC: 15.6 µg/mL (≈ 29.4 µM)
[18]
  MBC: 15.6 µg/mL (≈ 29.4 µM)
[19]
  MIC: 15.6 µg/mL (≈ 29.4 µM)
[20]
  MIC: 15.6 µg/mL (≈ 29.4 µM)
[3]
  IC50: 9.8 µM
[4]
  IC50: 18.2 µM
[21]
  IC50: 3.9 µg/mL (≈ 7.34 µM)
[22]
  MBC: 31.2 µg/mL (≈ 58.7 µM)
[23]
  IC50: 7.8 µg/mL (≈ 14.7 µM)
[24]
  MIC: 15.6 µg/mL (≈ 29.4 µM)

## Nc1nc(C(F)(F)F)cc(=O)n1Cc1cn(-c2nn(CCC(F)(F)C(F)(F)C(F)(F)C(F)(F)C(F)(F)C(F)(F)C(F)(F)C(F)(F)F)c3nc(C(F)(F)F)ccc23)nn1
[1]
  IC50: 68.2 µM
[2]
  IC50: > 100 µM
[3]
  IC50: > 100 µM
[4]
  IC50: 88.8 µM

## Nc1n[nH]c2nc(C(F)(F)F)ccc12
[1]
  IC50: 22.4 µM
[2]
  IC50: 58.4 µM
[3]
  IC50: 60.2 µM
[4]
  IC50: 29.1 µM

## C=CCn1nc(-n2cc(COc3cc(C(F)(F)F)nc(N)n3)nn2)c2ccc(C(F)(F)F)nc21
[7]
  MIC: inactive
[9]
  MIC: > 250 µg/mL
[1]
  IC50: > 100 µM
[2]
  IC50: 19.4 µM
[11]
  MIC: > 250 µg/mL
[12]
  MIC: > 250 µg/mL
[15]
  MIC: 7.8 µg/mL (≈ 16.1 µM)
[19]
  MIC: > 250 µg/mL
[20]
  MIC: > 250 µg/mL
[3]
  IC50: 18.4 µM
[4]
  IC50: > 100 µM
[24]
  MIC: > 250 µg/mL

## CCn1nc(-n2cc(Cn3c(N)nc(C(F)(F)F)cc3=O)nn2)c2ccc(C(F)(F)F)nc21
[1]
  IC50: > 100 µM
[2]
  IC50: 95.2 µM
[3]
  IC50: 62.3 µM
[4]
  IC50: > 100 µM

## CCCCCCCCn1nc(-n2cc(Cn3c(N)nc(C(F)(F)F)cc3=O)nn2)c2ccc(C(F)(F)F)nc21
[1]
  IC50: 10.1 µM
[2]
  IC50: 11.3 µM
[3]
  IC50: 9.4 µM
[4]
  IC50: 12.2 µM

## CC[C@H]1OC(=O)[C@H](C)[C@@H](O[C@H]2C[C@@](C)(OC)[C@@H](O)[C@H](C)O2)[C@H](C)[C@@H](O[C@@H]2O[C@H](C)C[C@H](N(C)C)[C@H]2O)[C@](C)(O)C[C@@H](C)C(=O)[C@H](C)[C@@H](O)[C@]1(C)O [ERYTHROMYCIN]
[5]
  IC50: 0.26 µg/mL (≈ 0.354 µM)
[13]
  IC50: 0.21 µg/mL (≈ 0.286 µM)
[16]
  IC50: 0.24 µg/mL (≈ 0.327 µM)
[21]
  IC50: 0.32 µg/mL (≈ 0.436 µM)
[23]
  IC50: 0.32 µg/mL (≈ 0.436 µM)

## CCCCCCCCCCn1nc(-n2cc(Cn3c(N)nc(C(F)(F)F)cc3=O)nn2)c2ccc(C(F)(F)F)nc21
[1]
  IC50: 14.3 µM
[2]
  IC50: 15.7 µM
[3]
  IC50: 13.4 µM
[4]
  IC50: 17.1 µM

## Nc1nc(C(F)(F)F)cc(=O)n1Cc1cn(-c2n[nH]c3nc(C(F)(F)F)ccc23)nn1
[1]
  IC50: 9.5 µM
[2]
  IC50: 14.4 µM
[3]
  IC50: 16.1 µM
[4]
  IC50: 10.5 µM
